Test results taken from patent US9693556B2, “Herbicidal pyridazinone derivatives” (SYNGENTA LIMITED, priority 2011, dated 2017).

Experiments:
Type in all cases: in vivo
[1] = test system: Ipomoea hederacea (IPOHE); assay: Pre-emergence herbicidal glasshouse test on Ipomoea hederacea; conditions: pre-emergence, 1000 g/h, evaluated after 13 days
Protocol: (§1) Seeds of a variety of test species are sown in standard soil in pots (Alopecurus myosuroides (ALOMY), Setaria faberi (SETFA), Echinochloa crus-galli (ECHCG), Solanum nigrum (SOLNI), Amaranthus retoflexus (AMARE), Ipomoea hederacea (IPOHE)). After cultivation for one day (pre-emergence) or after 8 days cultivation (post-emergence) under controlled conditions in a glasshouse (at 24/16° C., day/night; 14 hours light; 65% humidity), the plants are sprayed with an aqueous spray solution derived from the formulation of the technical active ingredient in acetone/water (50:50) solution containing 0.5% Tween 20 (polyoxyethelyene sorbitan monolaurate, CAS RN 9005-64-5). Compounds are applied at 1000 g/h. The test plants are then grown in a glasshouse under controlled conditions in a glasshouse (at 24/16° C., day/night; 14 hours light; 65% humidity) and watered twice daily. After 13 days for pre and post-emergence, the test is evaluated for the percentage herbicidal damage caused to the plant. The biological activities are shown in the following table on a five point scale (5=80-100% damage; 4=60-79% damage; 3=40-59% damage; 2=20-39% damage; 1=0-19% damage).

[2] = test system: Solanum nigrum (SOLNI); assay: Post-emergence herbicidal glasshouse test on Solanum nigrum; conditions: post-emergence, 1000 g/h, evaluated after 13 days
Protocol: as §1

[3] = test system: Echinochloa crus-galli (ECHCG); assay: Pre-emergence herbicidal glasshouse test on Echinochloa crus-galli; conditions: pre-emergence, 1000 g/h, evaluated after 13 days
Protocol: as §1

[4] = test system: Setaria faberi (SETFA); assay: Post-emergence herbicidal glasshouse test on Setaria faberi; conditions: post-emergence, 1000 g/h, evaluated after 13 days
Protocol: as §1

[5] = test system: Alopecurus myosuroides (ALOMY); assay: Post-emergence herbicidal glasshouse test on Alopecurus myosuroides; conditions: post-emergence, 1000 g/h, evaluated after 13 days
Protocol: as §1

[6] = test system: Solanum nigrum (SOLNI); assay: Pre-emergence herbicidal glasshouse test on Solanum nigrum; conditions: pre-emergence, 1000 g/h, evaluated after 13 days
Protocol: as §1

[7] = test system: Alopecurus myosuroides (ALOMY); assay: Pre-emergence herbicidal glasshouse test on Alopecurus myosuroides; conditions: pre-emergence, 1000 g/h, evaluated after 13 days
Protocol: as §1

[8] = test system: Amaranthus retoflexus (AMARE); assay: Post-emergence herbicidal glasshouse test on Amaranthus retoflexus; conditions: post-emergence, 1000 g/h, evaluated after 13 days
Protocol: as §1

[9] = test system: Ipomoea hederacea (IPOHE); assay: Post-emergence herbicidal glasshouse test on Ipomoea hederacea; conditions: post-emergence, 1000 g/h, evaluated after 13 days
Protocol: as §1

[10] = test system: Setaria faberi (SETFA); assay: Pre-emergence herbicidal glasshouse test on Setaria faberi; conditions: pre-emergence, 1000 g/h, evaluated after 13 days
Protocol: as §1

[11] = test system: Echinochloa crus-galli (ECHCG); assay: Post-emergence herbicidal glasshouse test on Echinochloa crus-galli; conditions: post-emergence, 1000 g/h, evaluated after 13 days
Protocol: as §1

[12] = test system: Amaranthus retoflexus (AMARE); assay: Pre-emergence herbicidal glasshouse test on Amaranthus retoflexus; conditions: pre-emergence, 1000 g/h, evaluated after 13 days
Protocol: as §1

## COc1nccc(-c2cnn(C)c(=O)c2O)c1Cl [Compound 1.150]
[1]; five point scale
  herbicidal damage, PRE Application IPOHE: 2 (2=20-39% damage)
[2]; five point scale
  herbicidal damage, POST Application SOLNI: 4 (4=60-79% damage)
[3]; five point scale
  herbicidal damage, PRE Application ECHCG: 1 (1=0-19% damage)
[4]; five point scale
  herbicidal damage, POST Application SETFA: 1 (1=0-19% damage)
[5]; five point scale
  herbicidal damage, POST Application ALOMY: 1 (1=0-19% damage)
[6]; five point scale
  herbicidal damage, PRE Application SOLNI: 1 (1=0-19% damage)
[7]; five point scale
  herbicidal damage, PRE Application ALOMY: 1 (1=0-19% damage)
[8]; five point scale
  herbicidal damage, POST Application AMARE: 1 (1=0-19% damage)
[9]; five point scale
  herbicidal damage, POST Application IPOHE: 1 (1=0-19% damage)
[10]; five point scale
  herbicidal damage, PRE Application SETFA: 1 (1=0-19% damage)
[11]; five point scale
  herbicidal damage, POST Application ECHCG: 1 (1=0-19% damage)
[12]; five point scale
  herbicidal damage, PRE Application AMARE: 2 (2=20-39% damage)

## CC(C)(C)n1ncc(-c2c(Cl)cccc2Cl)c(O)c1=O [Compound 1.133]
[1]
  PRE Application IPOHE herbicidal damage (five point scale): 1 (1=0-19% damage)
[2]
  POST Application SOLNI herbicidal damage (five point scale): 2 (2=20-39% damage)
[3]
  PRE Application ECHCG herbicidal damage (five point scale): 1 (1=0-19% damage)
[4]
  POST Application SETFA herbicidal damage (five point scale): 1 (1=0-19% damage)
[5]
  POST Application ALOMY herbicidal damage (five point scale): 1 (1=0-19% damage)
[6]
  PRE Application SOLNI herbicidal damage (five point scale): 1 (1=0-19% damage)
[7]
  PRE Application ALOMY herbicidal damage (five point scale): 1 (1=0-19% damage)
[8]
  POST Application AMARE herbicidal damage (five point scale): 1 (1=0-19% damage)
[9]
  POST Application IPOHE herbicidal damage (five point scale): 2 (2=20-39% damage)
[10]
  PRE Application SETFA herbicidal damage (five point scale): 1 (1=0-19% damage)
[11]
  POST Application ECHCG herbicidal damage (five point scale): 3 (3=40-59% damage)
[12]
  PRE Application AMARE herbicidal damage (five point scale): 1 (1=0-19% damage)

## Cn1ncc(-c2ccc(C(F)(F)F)cc2S(C)(=O)=O)c(O)c1=O [Compound 1.028, 4-hydroxy-2-methyl-5-[2-methylsulfonyl-4-(trifluoromethyl)phenyl]pyridazin-3-one]
[1]
  PRE Application IPOHE herbicidal damage (five point scale): 5 (5=80-100% damage)
[2]
  POST Application SOLNI herbicidal damage (five point scale): 5 (5=80-100% damage)
[3]
  PRE Application ECHCG herbicidal damage (five point scale): 5 (5=80-100% damage)
[4]
  POST Application SETFA herbicidal damage (five point scale): 5 (5=80-100% damage)
[5]
  POST Application ALOMY herbicidal damage (five point scale): 5 (5=80-100% damage)
[6]
  PRE Application SOLNI herbicidal damage (five point scale): 5 (5=80-100% damage)
[7]
  PRE Application ALOMY herbicidal damage (five point scale): 5 (5=80-100% damage)
[8]
  POST Application AMARE herbicidal damage (five point scale): 5 (5=80-100% damage)
[9]
  POST Application IPOHE herbicidal damage (five point scale): 5 (5=80-100% damage)
[10]
  PRE Application SETFA herbicidal damage (five point scale): 5 (5=80-100% damage)
[11]
  POST Application ECHCG herbicidal damage (five point scale): 5 (5=80-100% damage)
[12]
  PRE Application AMARE herbicidal damage (five point scale): 5 (5=80-100% damage)

## Cc1c(-c2cnn(C3CC3)c(=O)c2O)ccc(S(C)(=O)=O)c1C1=NOCC1 [Compound 1.008, 2-cyclopropyl-5-[3-(4,5-dihydroisoxazol-3-yl)-2-methyl-4-methylsulfonyl-phenyl]-4-hydroxy-pyridazin-3-one]
[1]
  PRE Application IPOHE herbicidal damage (five point scale): 3 (3=40-59% damage)
[2]
  POST Application SOLNI herbicidal damage (five point scale): 5 (5=80-100% damage)
[3]
  PRE Application ECHCG herbicidal damage (five point scale): 5 (5=80-100% damage)
[4]
  POST Application SETFA herbicidal damage (five point scale): 5 (5=80-100% damage)
[5]
  POST Application ALOMY herbicidal damage (five point scale): 5 (5=80-100% damage)
[6]
  PRE Application SOLNI herbicidal damage (five point scale): 5 (5=80-100% damage)
[7]
  PRE Application ALOMY herbicidal damage (five point scale): 4 (4=60-79% damage)
[8]
  POST Application AMARE herbicidal damage (five point scale): 5 (5=80-100% damage)
[9]
  POST Application IPOHE herbicidal damage (five point scale): 5 (5=80-100% damage)
[10]
  PRE Application SETFA herbicidal damage (five point scale): 4 (4=60-79% damage)
[11]
  POST Application ECHCG herbicidal damage (five point scale): 5 (5=80-100% damage)
[12]
  PRE Application AMARE herbicidal damage (five point scale): 4 (4=60-79% damage)

## Cn1ncc(-c2cc3cccnc3nc2C(F)(F)F)c(O)c1=O [Compound 1.039]
[1]
  PRE Application IPOHE herbicidal damage (five point scale): 5 (5=80-100% damage)
[2]
  POST Application SOLNI herbicidal damage (five point scale): 5 (5=80-100% damage)
[3]
  PRE Application ECHCG herbicidal damage (five point scale): 5 (5=80-100% damage)
[4]
  POST Application SETFA herbicidal damage (five point scale): 5 (5=80-100% damage)
[5]
  POST Application ALOMY herbicidal damage (five point scale): 4 (4=60-79% damage)
[6]
  PRE Application SOLNI herbicidal damage (five point scale): 4 (4=60-79% damage)
[7]
  PRE Application ALOMY herbicidal damage (five point scale): 2 (2=20-39% damage)
[8]
  POST Application AMARE herbicidal damage (five point scale): 5 (5=80-100% damage)
[9]
  POST Application IPOHE herbicidal damage (five point scale): 5 (5=80-100% damage)
[10]
  PRE Application SETFA herbicidal damage (five point scale): 3 (3=40-59% damage)
[11]
  POST Application ECHCG herbicidal damage (five point scale): 5 (5=80-100% damage)
[12]
  PRE Application AMARE herbicidal damage (five point scale): 5 (5=80-100% damage)

## Cn1ncc(-c2ccc(C(F)(F)F)n(-c3cccc(C(F)(F)F)n3)c2=O)c(O)c1=O [Compound 9.001]
[1]
  PRE Application IPOHE herbicidal damage (five point scale): 1 (1=0-19% damage)
[2]
  POST Application SOLNI herbicidal damage (five point scale): 4 (4=60-79% damage)
[3]
  PRE Application ECHCG herbicidal damage (five point scale): 2 (2=20-39% damage)
[4]
  POST Application SETFA herbicidal damage (five point scale): 4 (4=60-79% damage)
[5]
  POST Application ALOMY herbicidal damage (five point scale): 4 (4=60-79% damage)
[6]
  PRE Application SOLNI herbicidal damage (five point scale): 1 (1=0-19% damage)
[7]
  PRE Application ALOMY herbicidal damage (five point scale): 3 (3=40-59% damage)
[8]
  POST Application AMARE herbicidal damage (five point scale): 3 (3=40-59% damage)
[9]
  POST Application IPOHE herbicidal damage (five point scale): 1 (1=0-19% damage)
[10]
  PRE Application SETFA herbicidal damage (five point scale): 1 (1=0-19% damage)
[11]
  POST Application ECHCG herbicidal damage (five point scale): 4 (4=60-79% damage)
[12]
  PRE Application AMARE herbicidal damage (five point scale): 2 (2=20-39% damage)

## COCn1ncc(-c2ccc(S(C)(=O)=O)c(C3=NOCC3)c2C)c(O)c1=O [Compound 1.001]
[1]
  PRE Application IPOHE herbicidal damage (five point scale): 5 (5=80-100% damage)
[2]
  POST Application SOLNI herbicidal damage (five point scale): 5 (5=80-100% damage)
[3]
  PRE Application ECHCG herbicidal damage (five point scale): 5 (5=80-100% damage)
[4]
  POST Application SETFA herbicidal damage (five point scale): 5 (5=80-100% damage)
[5]
  POST Application ALOMY herbicidal damage (five point scale): 5 (5=80-100% damage)
[6]
  PRE Application SOLNI herbicidal damage (five point scale): 5 (5=80-100% damage)
[7]
  PRE Application ALOMY herbicidal damage (five point scale): 5 (5=80-100% damage)
[8]
  POST Application AMARE herbicidal damage (five point scale): 5 (5=80-100% damage)
[9]
  POST Application IPOHE herbicidal damage (five point scale): 5 (5=80-100% damage)
[10]
  PRE Application SETFA herbicidal damage (five point scale): 5 (5=80-100% damage)
[11]
  POST Application ECHCG herbicidal damage (five point scale): 5 (5=80-100% damage)
[12]
  PRE Application AMARE herbicidal damage (five point scale): 5 (5=80-100% damage)

## C=Cc1nn(C)c(=O)c(O)c1-c1ccc(S(C)(=O)=O)c(C2=NOCC2)c1C [Compound 2.020]
[1]
  PRE Application IPOHE herbicidal damage (five point scale): 1 (1=0-19% damage)
[2]
  POST Application SOLNI herbicidal damage (five point scale): 5 (5=80-100% damage)
[3]
  PRE Application ECHCG herbicidal damage (five point scale): 5 (5=80-100% damage)
[4]
  POST Application SETFA herbicidal damage (five point scale): 4 (4=60-79% damage)
[5]
  POST Application ALOMY herbicidal damage (five point scale): 4 (4=60-79% damage)
[6]
  PRE Application SOLNI herbicidal damage (five point scale): 5 (5=80-100% damage)
[7]
  PRE Application ALOMY herbicidal damage (five point scale): 4 (4=60-79% damage)
[8]
  POST Application AMARE herbicidal damage (five point scale): 5 (5=80-100% damage)
[9]
  POST Application IPOHE herbicidal damage (five point scale): 5 (5=80-100% damage)
[10]
  PRE Application SETFA herbicidal damage (five point scale): 1 (1=0-19% damage)
[11]
  POST Application ECHCG herbicidal damage (five point scale): 4 (4=60-79% damage)
[12]
  PRE Application AMARE herbicidal damage (five point scale): 5 (5=80-100% damage)
